Experimental findings from paper PMC6646883 (Biomacromolecules, 2019) are described below.

Where no end group is shown, it is not given here.

The format of this experiment is physicochemical. The note with it: methylene blue assay, dilute solution 0.1 mg/mL in 1x PBS pH 7.4 with Zn(OAc)2, Cys trigger, rt, absorbance at 750 nm, quadruplicate, t1/2=ln(2)/slope.
On to IAVEEEE [APA 1], for which the “H2S release half-life (pseudo-first-order)” value worked out at 31 min.
As to IAVEEEE [APA 3], the “H2S release half-life (pseudo-first-order)” value is given as 19 min.
The same measure for IAVEEEE [APA 5]: 13 min.
